The nature of data set [1]: Intravenous pharmacokinetic study in rats. It counts as in vivo. As for the experimental part:
The rats were fasted overnight before the experiment and anesthetized using an intramuscular injection of zoletil at 20 mg/kg. The femoral artery and vein were cannulated with a polyethylene tube (Clay Adams, Parsippany, NJ, USA). Acacetin (dissolved in a vehicle composed of DMSO, ethanol, and PEG400 (10:5:85, v/v/v)) was administered intravenously (10 mg/kg) or orally (100 mg/kg) to rats. Approximately 250 μL of blood was collected via the femoral artery at 0, 2, 5, 15, 30, 45, 60, 120, and 180 min after intravenous administration and at 0, 2, 5, 15, 30, 45, 60, 90, 120, and 180 min after oral administration. The cannula was flushed with heparin (20 IU/mL in saline) at each time point to prevent blood clotting. Following centrifugation of the blood sample at 8000× g and 4 °C for 2 min, 120 μL of plasma was obtained. Urine was collected at 1-h intervals in an ice-cold container over 24 h. After urine collection at 24 h, each rat was sacrificed by cervical dislocation; the entire GI tract (including its contents and feces) was excised, transferred into a beaker containing 100 mL methanol, and cut into small pieces using scissors. After manual stirring with a glass rod for 1 min, a 50-μL aliquot of the supernatant was collected. The plasma, urine (Ae24h), and GI tract (GI24h) samples were stored at −80 °C until further LC-MS/MS analysis. A noncompartmental analysis (WinNonlin ver. 3.1; Certara USA Inc., Princeton, NJ, USA) was performed to determine the following pharmacokinetic parameters: the AUCinf, area under plasma concentration versus time curve from time zero to the last sampling time (AUClast), t1/2, total body clearance (CL), apparent volume of distribution at steady state (Vss), and absolute oral bioavailability (F). The Cmax and time to reach Cmax (Tmax) were directly obtained from the plasma concentration versus time data.

Details of data set [2]: method as in PMID 25456423. The following applies: oral, 1.4–1.676 mg/kg in rats; cited from earlier work.

The structures appear in SMILES notation. Where two headings read alike, the source gives them in different places.

As to `COc1ccc(-c2cc(=O)c3c(O)cc(O)cc3o2)cc1` [acacetin, Acacetin], the “Urinary and GI (including biliary) excretion of unchanged acacetin” value in data set [1] (IV 10 mg/kg) is recorded as 1.5–12.8 % of dose. For the same molecule, the GI24h in data set [1] (IV 10 mg/kg, GI tract at 24 h) is recorded as 6.66 ± 5.34 % of dose. Also, the Ae24h in data set [1] (IV 10 mg/kg, urine 24 h) is on record as 2.50 ± 1.15 % of dose. For the same molecule, the clearance was 191 ± 34 mL/min/kg in data set [1] (Sprague-Dawley, rat, blood (plasma CL divided by RB), IV 10 mg/kg, read-out: Total blood clearance (CL/RB)) and 199 ± 36 mL/min/kg in data set [1] (rat, IV 10 mg/kg, total plasma clearance, read-out: CL). The AUC(0-inf) (usually total exposure, with the tail of the curve extrapolated) in data set [1] (rat, plasma, IV 10 mg/kg) is 855 ng·h/mL. The half-life (as a rule, how long it takes for the measured level to halve) in data set [1] (rat, plasma, IV 10 mg/kg) was 40.3 ± 7.2 min. In data set [1] (rat, plasma, IV 10 mg/kg, read-out: Vss), the Vd amounted to 2.22 ± 0.507 L/kg. In addition, in data set [1] (speculated from blood clearance vs hepatic blood flow), the Hepatic extraction ratio is on record as approximately 1. Also, the Cmax – broadly, the maximum level reached in the sampled fluid or tissue – in data set [2] is listed as 19.02 ng/mL.

Values taken from publication PMC7911516, “Investigation of the Factors Responsible for the Poor Oral Bioavailability of Acacetin in Rats: Physicochemical and Biopharmaceutical Aspects” (Pharmaceutics, 2021).
